In US11771709B2, “ALK protein degradation agent and anti-tumor application thereof” (ShanghaiTech University, priority 2017, dated 2023):

Columns and labels:
Assay type in all cases: cell-based
SR (NPM-ALK) cells = assay: Growth inhibition IC50 in ALCL SR cells (CCK8/WST, 72 hours); details: SR cells, WST
[1] = target: T1, ALK protein in SR (NPM-ALK) cells (Homo sapiens, UniProt Q9UM73); assay: Western blot of ALK protein level (degradation, DC50), ALK phosphorylation and downstream signaling in SR cells; details: for DC50 (nM) in SR / DC50: ALK protein degradation in SR cells
T1 construct: NPM (nucleophosmin, NPM1, P06748) fusion partner; host or cells: SR (ALCL) cells; the other entry of the earlier key: NPM1 (P06748, Nucleophosmin)
T1 sequence (Q9UM73 with tags, fused parts or gaps): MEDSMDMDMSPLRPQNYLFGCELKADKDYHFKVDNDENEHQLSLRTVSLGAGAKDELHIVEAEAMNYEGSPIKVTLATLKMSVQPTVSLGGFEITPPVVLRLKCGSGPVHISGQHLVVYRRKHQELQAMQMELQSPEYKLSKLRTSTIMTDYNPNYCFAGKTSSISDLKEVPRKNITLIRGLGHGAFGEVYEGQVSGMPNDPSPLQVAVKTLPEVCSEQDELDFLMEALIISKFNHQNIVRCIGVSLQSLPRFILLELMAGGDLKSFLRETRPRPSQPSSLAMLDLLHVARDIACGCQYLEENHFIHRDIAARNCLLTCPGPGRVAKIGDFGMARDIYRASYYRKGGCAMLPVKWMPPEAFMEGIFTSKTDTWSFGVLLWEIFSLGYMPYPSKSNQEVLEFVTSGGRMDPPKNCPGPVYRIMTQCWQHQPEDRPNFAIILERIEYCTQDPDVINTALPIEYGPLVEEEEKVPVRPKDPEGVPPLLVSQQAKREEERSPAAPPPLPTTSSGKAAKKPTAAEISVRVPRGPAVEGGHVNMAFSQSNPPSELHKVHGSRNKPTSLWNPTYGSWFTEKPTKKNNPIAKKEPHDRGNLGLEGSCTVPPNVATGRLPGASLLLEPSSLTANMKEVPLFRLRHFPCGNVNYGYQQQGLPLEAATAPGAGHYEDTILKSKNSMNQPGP

[2] = target: T2, ALK protein in H3122 (EML4-ALK) cells (Homo sapiens, UniProt Q9UM73); assay: Western blot of ALK protein level (degradation, DC50), ALK phosphorylation and downstream signaling in H3122 cells; details: ALK protein degradation in H3122 cells
T2 construct: EML4 (Echinoderm microtubule-associated protein-like 4, Q9HC35) fusion partner, variant 1; host or cells: NCI-H3122 lung adenocarcinoma cells; the other entry of the earlier key: EML4 (Q9HC35, Echinoderm microtubule-associated protein-like 4)
T2 sequence (Q9UM73 with tags, fused parts or gaps): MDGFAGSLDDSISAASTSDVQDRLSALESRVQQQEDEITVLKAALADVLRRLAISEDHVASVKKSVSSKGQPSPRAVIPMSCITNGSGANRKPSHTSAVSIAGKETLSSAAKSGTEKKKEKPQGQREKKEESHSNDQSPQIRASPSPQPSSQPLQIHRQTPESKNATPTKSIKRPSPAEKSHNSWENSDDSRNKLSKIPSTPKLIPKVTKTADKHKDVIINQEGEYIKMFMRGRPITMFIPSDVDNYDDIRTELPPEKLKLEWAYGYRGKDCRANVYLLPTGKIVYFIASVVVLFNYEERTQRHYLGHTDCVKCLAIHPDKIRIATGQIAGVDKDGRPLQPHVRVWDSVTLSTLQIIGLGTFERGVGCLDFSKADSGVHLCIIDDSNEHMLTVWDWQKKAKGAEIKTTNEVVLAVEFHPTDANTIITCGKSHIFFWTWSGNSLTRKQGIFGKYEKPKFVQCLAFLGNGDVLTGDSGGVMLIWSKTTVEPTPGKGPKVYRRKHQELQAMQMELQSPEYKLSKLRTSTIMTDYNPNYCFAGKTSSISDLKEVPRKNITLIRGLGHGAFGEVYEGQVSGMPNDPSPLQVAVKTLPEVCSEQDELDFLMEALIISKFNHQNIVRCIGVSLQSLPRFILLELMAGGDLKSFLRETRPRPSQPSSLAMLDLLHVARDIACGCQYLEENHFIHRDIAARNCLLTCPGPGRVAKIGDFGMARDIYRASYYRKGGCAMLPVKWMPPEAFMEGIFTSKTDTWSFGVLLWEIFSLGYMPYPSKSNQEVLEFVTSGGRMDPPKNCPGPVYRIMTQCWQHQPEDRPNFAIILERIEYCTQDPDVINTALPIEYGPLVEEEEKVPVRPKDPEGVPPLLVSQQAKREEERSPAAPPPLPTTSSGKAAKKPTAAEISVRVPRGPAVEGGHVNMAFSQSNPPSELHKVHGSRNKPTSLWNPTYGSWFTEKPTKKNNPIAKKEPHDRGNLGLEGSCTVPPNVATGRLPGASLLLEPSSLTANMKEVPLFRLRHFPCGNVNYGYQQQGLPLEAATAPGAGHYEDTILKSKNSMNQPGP

[3] = 72 h, Brigatinib-based PROTAD molecules (Table 3)
[4] = Alectinib based ALK PROTAD compounds (Table 4)

Row | DC50 (nM) in SR [1] | DC50 (nM)) in H3122 [2] | ALK protein degradation ([1]; SR cells, western blot, 16 hours, up to 500 nM) | DC50 [1] [nM] | DC50 [2] [nM] | concentration at which ALK proteins were degraded ([1]; SR cells, western blot) [nM] | SMILES | IC50 (SR (NPM-ALK) cells; [3]) [nM] | IC50 (SR (NPM-ALK) cells; [4]) [nM]
1 | – | – | – | 1 to 10 | 1 to 10 | 1 | COc1cc(N2CCC(N3CCN(C(=O)CCOCCOCCOCCNc4cccc5c4C(=O)N(C4CCC(=O)NC4=O)C5=O)CC3)CC2)ccc1Nc1ncc(Cl)c(Nc2ccccc2P(C)(C)=O)n1 (centres unmarked) [SIAIS164009, 4-((2-(2-(2-(3-(4-(1-(4-((5-chloro-4-((2-(dimethylphosphoryl)phenyl)amino)pyrimidin-2-yl)amino)-3-methoxyphenyl)piperidin-4-yl)piperazin-1-yl)-3-oxopropoxy)ethoxy)ethoxy)ethyl)amino)-2-(2,6-dioxopiperidin-3-yl)isoindoline-1,3-dione] | 5.3 ± 1.7 | –
2 | – | – | – | 1 to 10 | 1 to 10 | – | COc1cc(N2CCC(N3CCN(C(=O)CCOCCOCCOCCOCCNc4cccc5c4C(=O)N(C4CCC(=O)NC4=O)C5=O)CC3)CC2)ccc1Nc1ncc(Cl)c(Nc2ccccc2P(C)(C)=O)n1 (centres unmarked) [SIAIS164016, 4-((15-(4-(1-(4-((5-chloro-4-((2-(dimethylphosphoryl)phenyl)amino)pyrimidin-2-yl)amino)-3-methoxyphenyl)piperidin-4-yl)piperazin-1-yl)-15-oxo-3,6,9,12-tetraoxapentadecyl)amino)-2-(2,6-dioxopiperidin-3-yl)isoindoline-1,3-dione] | 11.2 ± 6.8 | –
3 | – | 0.02 to 20 nM | – | 100 to 500 | – | – | COc1cc(N2CCC(N3CCN(C(=O)CCOCCOCCOCCOCCOCCNc4cccc5c4C(=O)N(C4CCC(=O)NC4=O)C5=O)CC3)CC2)ccc1Nc1ncc(Cl)c(Nc2ccccc2P(C)(C)=O)n1 (stereo not drawn) [SIAIS164017, 4-((18-(4-(1-(4-((5-chloro-4-((2-(dimethylphosphoryl)phenyl)amino)pyrimidin-2-yl)amino)-3-methoxyphenyl)piperidin-4-yl)piperazin-l-yl)-18-oxo-3,6,9,12,15-pentaoxaoctadecyl)amino)-2-(2,6-dioxopiperidin-3-yl)isoindoline-1,3-dione] | 14 ± 8.6 | –
4 | – | – | – | 1 to 10 | 10 to 20 | – | COc1cc(N2CCC(N3CCN(C(=O)CCNc4cccc5c4C(=O)N(C4CCC(=O)NC4=O)C5=O)CC3)CC2)ccc1Nc1ncc(Cl)c(Nc2ccccc2P(C)(C)=O)n1 (centres unmarked) [SIAIS164019, 4-((3-(4-(1-(4-((5-chloro-4-((2-(dimethylphosphoryl)phenyl)amino)pyrimidin-2-yl)amino)-3-methoxyphenyl)piperidin-4-yl)piperazin-1-yl)-3-oxopropyl)amino)-2-(2,6-dioxopiperidin-3-yl)isoindoline-1,3-dione] | 9.6 ± 8 | –
5 | – | – | – | 100 to 500 | 20 to 100 | – | COc1cc(N2CCC(N3CCN(C(=O)CCOCCOCCC(=O)N[C@H](C(=O)N4C[C@H](O)C[C@H]4C(=O)NCc4ccc(-c5scnc5C)cc4)C(C)(C)C)CC3)CC2)ccc1Nc1ncc(Cl)c(Nc2ccccc2P(C)(C)=O)n1 [SIAIS164032, (2S,4R)-1-((S)-2-(3-(2-(3-(4-(1-(4-((5-chloro-4-((2-(dimethylphosphoryl)phenyl)amino)pyrimidin-2-yl)amino)-3-methoxyphenyl)piperidin-4-yl)piperazin-1-yl)-3-oxopropoxy)ethoxy)propanamido)-3,3-dimethylbutanoyl)-4-hydroxy-N-(4-(4-methylthiazol-5-yl)benzyl)pyrrolidine-2-carboxamide] | 54.5 ± 31.2 | –
6 | – | – | – | 100 to 500 | 100 to 500 | – | COc1cc(N2CCC(N3CCN(C(=O)CCOCCOCCOCCC(=O)N[C@H](C(=O)N4C[C@H](O)C[C@H]4C(=O)NCc4ccc(-c5scnc5C)cc4)C(C)(C)C)CC3)CC2)ccc1Nc1ncc(Cl)c(Nc2ccccc2P(C)(C)=O)n1 [SIAIS164033, (2S,4R)-1-((S)-2-(tert-butyl)-16-(4-(1-(4-((5-chloro-4-((2-(dimethylphosphoryl)phenyl)amino)pyrimidin-2-yl)amino)-3-methoxyphenyl)piperidin-4-yl)piperazin-1-yl)-4,16-dioxo-7,10,13-trioxa-3-azahexadecanoyl)-4-hydroxy-N-(4-(4-methylthiazol-5-yl)benzyl)pyrrolidine-2-carboxamide] | 50.1 ± 34.9 | –

More lines, now with the values behind:

Row | SMILES | DC50 (nM) in SR [1] | DC50 (nM)) in H3122 [2] | ALK protein degradation ([1]; SR cells, western blot, 16 hours, up to 500 nM) | DC50 [1] [nM] | DC50 [2] [nM] | concentration at which ALK proteins were degraded ([1]; SR cells, western blot) [nM] | IC50 (SR (NPM-ALK) cells; [3]) [nM] | IC50 (SR (NPM-ALK) cells; [4]) [nM]
7 | COc1cc(N2CCC(N)CC2)ccc1Nc1ncc(Cl)c(Nc2ccccc2P(C)(C)=O)n1 [Brigatinib Analogue B(SIAIS151101), (2-((2-((4-(4-aminopiperidin-1-yl)-2-methoxyphenyl)amino)-5-chloropyrimidin-4-yl)amino)phenyl)dimethylphosphine oxide] | Not degrade | Not degrade | – | – | – | – | 1.7 ± 1.4 | –
8 | COc1cc(N2CCC(N3CCNCC3)CC2)ccc1Nc1ncc(Cl)c(Nc2ccccc2P(C)(C)=O)n1 [Brigatinib Analogue C(SIAIS164005), (2-((5-chloro-2-((2-methoxy-4-(4-(piperazin-1-yl)piperidin-1-yl)phenyl)amino)pyrimidin-4-yl)amino)phenyl)dimethylphosphine oxide] | Not degrade | Not degrade | did not degrade ALK protein | – | – | – | 6.7 ± 3.1 | –
9 | COc1cc(N2CCC(NC(=O)CCCCCCNc3cccc4c3C(=O)N(C3CCC(=O)NC3=O)C4=O)CC2)ccc1Nc1ncc(Cl)c(Nc2ccccc2P(C)(C)=O)n1 (centres unmarked) [SIAIS151123, N-(1-(4-((5-chloro-4-((2-(dimethylphosphoryl)phenyl)amino)pyrimidin-2-yl)amino)-3-methoxyphenyl)piperidin-4-yl)-7-((2-(2,6-dioxopiperidin-3-yl)-1,3-dioxoisoindolin-4-yl)amino)heptanamide] | – | – | – | 0.1 to 2 | 1 to 50 | – | 1.9 ± 1.5 | –
10 | CCc1cc2c(cc1N1CCN(C(=O)CCOCCOCCNc3cccc4c3C(=O)N(C3CCC(=O)NC3=O)C4=O)CC1)C(C)(C)c1[nH]c3cc(C#N)ccc3c1C2=O (centres unmarked) [SIAIS164012, 8-(4-(3-(2-(2-((2-(2,6-dioxopiperidin-3-yl)-1,3-dioxoisoindolin-4-yl)amino)ethoxy)ethoxy)propanoyl)piperazin-1-yl)-9-ethyl-6,6-dimethyl-11-oxo-6,11-dihydro-5H-benzo[b]carbazole-3-carbonitrile] | – | – | – | 1 to 50 | 1 to 50 | – | – | 48.9
11 | COc1cc(N2CCC(N3CCN(C(=O)CCCNc4cccc5c4C(=O)N(C4CCC(=O)NC4=O)C5=O)CC3)CC2)ccc1Nc1ncc(Cl)c(Nc2ccccc2P(C)(C)=O)n1 (centres unmarked) [SIAIS164020, 4-((4-(4-(1-(4-((5-chloro-4-((2-(dimethylphosphoryl)phenyl)amino)pyrimidin-2-yl)amino)-3-methoxyphenyl)piperidin-4-yl)piperazin-1-yl)-4-oxobutyl)amino)-2-(2,6-dioxopiperidin-3-yl)isoindoline-1,3-dione] | – | – | – | 0.5 to 10 | 1 to 50 | – | 2.9 ± 1.5 | –
12 | CCc1cc2c(cc1N1CCN(C(=O)CNc3cccc4c3C(=O)N(C3CCC(=O)NC3=O)C4=O)CC1)C(C)(C)c1[nH]c3cc(C#N)ccc3c1C2=O (centres unmarked) [SIAIS164028, 8-(4-((2-(2,6-dioxopiperidin-3-yl)-1,3-dioxoisoindolin-4-yl)glycyl)piperazin-1-yl)-9-ethyl-6,6-dimethyl-11-oxo-6,11-dihydro-5H-benzo[b]carbazole-3-carbonitrile] | – | – | – | 1 to 50 | 1 to 10 | – | – | 19.7
